The text below walks through data of patent US8846909B2, “Bicyclic heteroaryl kinase inhibitors and methods of use” (University of Rochester, priority 2010, dated 2014).

Molecules are shown by their SMILES. Bounds are passed on as bounds.

T1 sequence (Q16584 whole entry): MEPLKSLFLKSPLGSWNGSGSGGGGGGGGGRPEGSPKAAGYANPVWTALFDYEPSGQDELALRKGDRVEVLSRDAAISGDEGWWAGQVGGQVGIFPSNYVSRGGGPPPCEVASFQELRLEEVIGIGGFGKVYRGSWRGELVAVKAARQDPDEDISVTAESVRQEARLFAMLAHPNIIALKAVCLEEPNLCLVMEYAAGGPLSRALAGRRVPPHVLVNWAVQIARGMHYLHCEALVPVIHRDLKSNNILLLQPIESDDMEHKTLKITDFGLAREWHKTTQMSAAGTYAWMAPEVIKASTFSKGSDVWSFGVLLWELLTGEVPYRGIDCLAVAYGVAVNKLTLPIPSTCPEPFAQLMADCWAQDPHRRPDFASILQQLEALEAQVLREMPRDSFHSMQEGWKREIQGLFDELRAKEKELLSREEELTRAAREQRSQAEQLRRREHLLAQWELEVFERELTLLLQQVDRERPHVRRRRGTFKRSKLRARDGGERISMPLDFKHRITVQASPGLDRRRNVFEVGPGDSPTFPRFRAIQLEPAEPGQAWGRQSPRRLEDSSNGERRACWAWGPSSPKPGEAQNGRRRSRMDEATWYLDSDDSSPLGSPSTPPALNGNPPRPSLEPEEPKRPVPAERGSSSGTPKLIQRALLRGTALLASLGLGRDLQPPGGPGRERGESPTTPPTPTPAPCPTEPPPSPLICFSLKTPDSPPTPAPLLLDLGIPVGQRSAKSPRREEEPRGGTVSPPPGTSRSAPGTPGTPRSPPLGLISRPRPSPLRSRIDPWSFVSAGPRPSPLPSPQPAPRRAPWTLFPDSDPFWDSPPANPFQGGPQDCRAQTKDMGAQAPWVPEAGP

The assay concerns the target T1, MLK3 (Homo sapiens, UniProt Q16584).
T1 construct: purchased Dundee DU8313
The assay is described as follows: Radiometric filter plate MLK3 assay. Further: 2 µM cold ATP (Km). Format: biochemical. The note with it: read-out: MK3 IC50. On the procedure:
After a twenty minute incubation, the reactions were washed through filter plates and read on a scintillation counter. Results are shown in Table 10 below, in which +++ indicates ≦0.1 μM, ++ indicates >0.1 μM and ≦1 μM, and + indicates >1 μM.
By IC50 is commonly meant the concentration that inhibits the measured activity by half. Consider `COc1ccc(-n2c(=O)[nH]c3ncc(-c4ccc(OC)c(OC)c4)nc32)cc1` [Example 69, 6-(3,4-dimethoxyphenyl)-1-(4-methoxyphenyl)-1H-imidazo[4,5-b]pyrazin-2(3H)-one], for which the IC50 is greater than 1000 nM.
`COc1ccc(-n2c(=O)[nH]c3ncc(-c4ccc(O)cc4)nc32)cc1` [Example 70, 6-(4-hydroxyphenyl)-1-(4-methoxyphenyl)-1H-imidazo[4,5-b]pyrazin-2(3H)-one]: the IC50 was greater than 1000 nM.
The same measure for `COc1ccc(-n2c(=O)[nH]c3ncc(-c4ccncc4)nc32)cc1` [Example 71, 1-(4-methoxyphenyl)-6-(pyridin-4-yl)-1H-imidazo[4,5-b]pyrazin-2(3H)-one]: greater than 1000 nM.
For the compound `COc1cc(-c2cnc3[nH]c(=O)n(-c4ccc5[nH]c(C)cc5c4)c3n2)cc(OC)c1OC` [Example 72, 1-(2-methyl-1H-indol-5-yl)-6-(3,4,5-trimethoxyphenyl)-1H-imidazo[4,5-b]pyrazin-2(3H)-one], the IC50 is less than 100 nM.
With `Cc1cc2cc(-n3c(=O)[nH]c4ncc(-c5cc(Cl)cc(Cl)c5)nc43)ccc2[nH]1` [Example 73, 6-(3,5-dichlorophenyl)-1-(2-methyl-1H-indol-5-yl)-1H-imidazo[4,5-b]pyrazin-2(3H)-one], the IC50 is greater than 1000 nM.
On to `COc1cc(-c2cnc3[nH]c(=O)n(C4CCCC4)c3n2)cc(OC)c1OC` [Example 74, 1-cyclopentyl-6-(3,4,5-trimethoxyphenyl)-1H-imidazo[4,5-b]pyrazin-2(3H)-one], for which the IC50 was less than 100 nM.
The value for `COc1ccc(-c2cnc3[nH]c(=O)n(C4CCCC4)c3n2)cc1OC` [Example 75, 1-cyclopentyl-6-(3,4-dimethoxyphenyl)-1H-imidazo[4,5-b]pyrazin-2(3H)-one] was greater than 1000 nM.
On to `O=c1[nH]c2ncc(-c3ccncc3)nc2n1C1CCCC1` [Example 77, 1-cyclopentyl-6-(pyridin-4-yl)-1H-imidazo[4,5-b]pyrazin-2(3H)-one], for which the half-maximal inhibitory concentration (IC50) is greater than 1000 nM.
The value for `O=c1[nH]c2ncc(-c3cc(Cl)cc(Cl)c3)nc2n1CC1CC1` [Example 80, 1-(cyclopropylmethyl)-6-(3,5-dichlorophenyl)-1H-imidazo[4,5-b]pyrazin-2(3H)-one] was greater than 1000 nM; that for `O=c1[nH]c2ncc(-c3ccc(O)cc3)nc2n1CC1CC1` [Example 81, 1-(cyclopropylmethyl)-6-(4-hydroxyphenyl)-1H-imidazo[4,5-b]pyrazin-2(3H)-one] was greater than 1000 nM.
The value for `O=c1[nH]c2ncc(-c3ccncc3)nc2n1CC1CC1` [Example 82, 1-(cyclopropylmethyl)-6-(pyridin-4-yl)-1H-imidazo[4,5-b]pyrazin-2(3H)-one] was greater than 1000 nM.
The value for `Cc1cc2cc(-n3c(=O)[nH]c4ncc(-c5ccncc5)nc43)ccc2[nH]1` [Example 85, 1-(2-methyl-1H-indol-5-yl)-6-(pyridin-4-yl)-1H-imidazo[4,5-b]pyrazin-2(3H)-one] was greater than 1000 nM; that for `O=c1[nH]c2ncc(-c3ccc(N4CCOCC4)cc3)nc2n1CC1CC1` [Example 86, 1-(cyclopropylmethyl)-6-(4-morpholinophenyl)-1H-imidazo[4,5-b]pyrazin-2(3H)-one] was greater than 1000 nM; that for `COc1ccc(-c2cnc3[nH]c(=O)n(-c4ccc5[nH]ncc5c4)c3n2)cc1OC` [Example 87, 6-(3,4-dimethoxyphenyl)-1-(1H-indazol-5-yl)-1H-imidazo[4,5-b]pyrazin-2(3H)-one] was greater than 1000 nM.
On to `O=c1[nH]c2ncc(-c3ccncc3)nc2n1-c1ccc2[nH]ncc2c1` [Example 88, 1-(1H-indazol-5-yl)-6-(pyridin-4-yl)-1H-imidazo[4,5-b]pyrazin-2(3H)-one], for which the IC50 is greater than 1000 nM.
The value for `O=c1[nH]c2ncc(-c3ccc(N4CCOCC4)cc3)nc2n1-c1ccc2[nH]ncc2c1` [Example 89, 1-(1H-indazol-5-yl)-6-(4-morpholinophenyl)-1H-imidazo[4,5-b]pyrazin-2(3H)-one] was greater than 1000 nM; that for `O=c1[nH]c2ncc(-c3ccc(O)cc3)nc2n1-c1ccc2cn[nH]c2c1` [Example 92, 6-(4-hydroxyphenyl)-1-(1H-indazol-6-yl)-1H-imidazo[4,5-b]pyrazin-2(3H)-one] was greater than 1000 nM; that for `COc1cc(OC)c(-c2cnc3[nH]c(=O)n(C4CCCC4)c3n2)c(OC)c1` [Example 94, 1-cyclopentyl-6-(2,4,6-trimethoxyphenyl)-1H-imidazo[4,5-b]pyrazin-2(3H)-one] was greater than 1000 nM.
Take `Cc1cc(C)cc(-c2cnc3[nH]c(=O)n(-c4ccc5cn[nH]c5c4)c3n2)c1` [Example 95, 6-(3,5-dimethylphenyl)-1-(1H-indazol-6-yl)-1H-imidazo[4,5-b]pyrazin-2(3H)-one]: the IC50 was greater than 1000 nM.
The same measure for `O=c1[nH]c2ncc(-c3ccncc3)nc2n1-c1ccc2scnc2c1` [Example 98, 1-(benzo[d]thiazol-5-yl)-6-(pyridin-4-yl)-1H-imidazo[4,5-b]pyrazin-2(3H)-one]: greater than 1000 nM.
The value for `Cc1cc(C)cc(-c2cnc3[nH]c(=O)n(-c4ccc5scnc5c4)c3n2)c1` [Example 99, 1-(benzo[d]thiazol-5-yl)-6-(3,5-dimethylphenyl)-1H-imidazo[4,5-b]pyrazin-2(3H)-one] was greater than 1000 nM; that for `O=c1[nH]c2ncc(-c3ccc(N4CCOCC4)cc3)nc2n1-c1ccc2scnc2c1` [Example 100, 1-(benzo[d]thiazol-5-yl)-6-(4-morpholinophenyl)-1H-imidazo[4,5-b]pyrazin-2(3H)-one] was greater than 1000 nM; that for `COc1cc(-c2cnc3[nH]c(=O)n(C4CCc5ccccc54)c3n2)cc(OC)c1OC` (centres unmarked) [Example 101, 1-(2,3-dihydro-1H-inden-1-yl)-6-(3,4,5-trimethoxyphenyl)-1H-imidazo[4,5-b]pyrazin-2(3H)-one] was greater than 1000 nM.
The same measure for `COc1cc(-c2cnc3[nH]c(=O)n(-c4ccc5[nH]cnc5c4)c3n2)cc(OC)c1OC` [Example 102, 1-(1H-benzo[d]imidazol-5-yl)-6-(3,4,5-trimethoxyphenyl)-1H-imidazo[4,5-b]pyrazin-2(3H)-one]: less than 100 nM.
With `COc1cc(-c2cnc3[nH]c(=O)n(-c4ccc(N5CCOCC5)nc4)c3n2)cc(OC)c1OC` [Example 109, 1-(6-morpholinopyridin-3-yl)-6-(3,4,5-trimethoxyphenyl)-1H-imidazo[4,5-b]pyrazin-2(3H)-one], the IC50 is greater than 1000 nM.
In the case of `COc1cc(-c2cnc3[nH]c(=O)n(C4Cc5ccccc5C4)c3n2)cc(OC)c1OC` [Example 110, 1-(2,3-dihydro-1H-inden-2-yl)-6-(3,4,5-trimethoxyphenyl)-1H-imidazo[4,5-b]pyrazin-2(3H)-one], the IC50 is less than 100 nM.
Consider `COc1cc(-c2cnc3[nH]c(=O)n(-c4cnc5[nH]ccc5c4)c3n2)cc(OC)c1OC` [Example 112, 1-(1H-pyrrolo[2,3-b]pyridin-5-yl)-6-(3,4,5-trimethoxyphenyl)-1H-imidazo[4,5-b]pyrazin-2(3H)-one], for which the IC50 is less than 100 nM.
As to `COc1cc(-c2cnc3[nH]c(=O)n(-c4ccc5cc[nH]c5c4)c3n2)cc(OC)c1OC` [Example 113, 1-(1H-indol-6-yl)-6-(3,4,5-trimethoxyphenyl)-1H-imidazo[4,5-b]pyrazin-2(3H)-one], the IC50 was less than 100 nM.
As for `Nc1ccc(-c2cnc3[nH]c(=O)n(C4CCCC4)c3n2)cn1` [Example 117, 6-(6-aminopyridin-3-yl)-1-cyclopentyl-1H-imidazo[4,5-b]pyrazin-2(3H)-one], the IC50 is greater than 1000 nM.
